Data as given in patent publication US7618958B2, “Stereospecific anxiolytic and anticonvulsant agents with reduced muscle-relaxant, sedative-hypnotic and ataxic effects” (WISYS Technology Foundation, Inc., priority 2004, dated 2009).

Tests used:
[1] = tested on: Male BALB/c mice; assay: Locomotor activity in mice; format: in vivo, mouse; conditions: ip
Protocol: (§1) Male BALB/c mice approximately 8 to 10 weeks old (18-25 grams) served as subjects in the locomotor activity and light/dark assays. Animals were housed in groups of four on a 14 hour light/10 hour dark cycle and were given free access to food and water. All experiments were conducted during the animals' light cycle (0800-1700).
(§2) Behavioral testing was conducted in an illuminated open field chamber (11.0″×11.0″; Med Associates MED-OFA-510) equipped with infrared beams and sensors which was placed in a sound attenuating cubicle. Horizontal locomotor activity was measured by recording the total number of beams crossed in a 60 minute period. Anxiolytic-like behavior was assessed using the same chambers with the addition of a Plexiglas insert that is opaque to visible light creating separate darkened and illuminated sides (5.5″×11.0″) of the chamber. An opening in the middle of the dark insert allowed the animals to move freely between each side of the chamber. Animals were place in the center of the illuminated side of the chamber and allowed to freely explore for 10 minutes. The amount of time (sec) that the animals spent in each side of the chamber was recorded. Data were analyzed using one-way analysis of variance and Bonferroni t-tests.
Vehicle and doses of SH-053-S—CH3 8 (10.0-100.0 mg/kg) and SH-053-R-CH3 29 (56.0 mg/kg) were tested in the light/dark and locomotor activity assays. All drugs were administered intraperitoneally (ip) 30 minutes before each test in volumes of approximately 1 ml/kg. Drugs were dissolved in varying amounts of 95% ethanol (5-10%), propylene glycol and sterile water and diluted to the desired concentration with a solution of 50% propylene glycol and 50% sterile water.

[2] = tested on: male Wistar rats; assay: Elevated plus-maze in rats; format: in vivo, rat; conditions: for Open Entries / Closed Entries / Total Distance Travelled (m) / Total Entries / % Open Time / % Open Entries / Time in open arms / Time in closed arms: rats, mean; for Open Entries: SOLVENT mean 2.57; for Closed Entries: SOLVENT mean 7.14; for Total Distance Travelled (m): SOLVENT mean 9.30; for Total Entries: SOLVENT mean 9.71; for % Open Time: SOLVENT mean 20.43; for % Open Entries: SOLVENT mean 25.57; for Time in open arms: SOLVENT mean 50.29; for Time in closed arms: SOLVENT mean 196.29
Protocol: Except where noted, the methods used were those of Miroslav M., et al., (2004) Pharmacology, Biochemistry and Behavior 79: 279-290. Experiments were carried out on male Wistar rats (Military Farm, Belgrade, Serbia and Montenegro), weighing 200-240 g. All procedures in the study conformed to EEC Directive 86/609 and were approved by the Ethical Committee on Animal Experimentation of the Medical Faculty in Belgrade. The rats were housed in transparent plastic cages, six animals per cage, and had free access to pelleted food and tap water before and after drug administration. The temperature of the animal room was 22±1° C., the relative humidity 40-70%, the illumination 120 1× and the 12/12-h light/dark period (light on at 06:00 h). All handling and testing took place during the light portion of the cycle. Throughout the study the animals were used only once.
Midazolam and flumazenil were generously donated from F. Hoffman-La Roche (Basel, Switzerland). Zolpidem was purchased from Toronto Research Chemicals (North York, Canada) and DMCM from Research Biochemicals (Natick, Mass., USA). All drugs were dissolved/suspended with the aid of sonication in a solvent containing 85% distilled water, 14% propylene glycol and 1% Tween 80™, and were administered intraperitoneally, in a volume of 1 ml/kg, 20 min before testing. Doses are expressed as the base forms of the drugs. In the cases of combined treatment, agonists were administered at separate sites, immediately after the antagonist. Each animal received a total volume of 2 ml/kg of compounds tested or appropriate vehicles, at two different injection sites.
The test apparatus was constructed of sheet metal, with a black rubber floor. It consisted of a maze elevated to a height of 50 cm with two open (50×10 cm) and two enclosed arms (50×10×40 cm), connected by junction area (central platform) measured 10×10 cm. Although the floor was rubberized, a ledge of sheet metal (0.3 cm high) surrounding the open arms was added, to avoid rats falling off. The illumination in the experimental room consisted of one red neon tube fixed on the ceiling, giving light intensity of 10 1× on the surface of the arms. The experiments were carried out during the diurnal phase (between 08:00 and 12:00 h). At the beginning of the experiment, rats were placed in the centre of the maze, facing one of the enclosed arms and observed for 5 min. The observer sat in the same room 1 m from the maze. After each trial, the maze was cleaned with dry and wet towels. Throughout the study, the number of rats per treatment group was 8-14. Each experiment was run over 4 consecutive days, with three control rats per day; as there was no difference in plus-maze activity among control subgroups, they were pooled in a single control group (n=12).
All numerical data presented in the figures were given as the mean±S.E.M. Each dose-response curve (agonist or antagonist alone or agonist+antagonist) was assessed by a one-way ANOVA. If the ANOVA was significant, each treatment condition was compared with the appropriate solvent control by a Dunnett's test (a=0.05). In case of significant effect in the number of enclosed arm entries, an analysis of covariance (ANCOVA) was performed in the anxiety-related parameters using the number of enclosed arm entries as covariate. Interactions between the agonists and antagonists were analyzed separately with a two-way ANOVA [factors: agonist dose versus cotreatment (an antagonist or saline)]; pairwise comparisons for the assessment of the antagonist influence on the agonist effects were conducted by Tukey's test, one of the methods recommended even in the absence of an overall significant F-test (Wilcox R R. New designs in analysis of variance. Annu Rev Psychol 1987; 38: 29-60). Statistical analyses were performed with commercial statistical software for PC, Stat for Windows R. 5.0.

[3] = tested on: Male BALB/c mice; assay: Light/dark test in mice; format: in vivo, mouse; conditions: ip, FIG. 2 A, *p<0.05 vs. vehicle
Protocol: as §1, §2
Vehicle and doses of SH-053-S—CH3 8 (10.0-100.0 mg/kg) and SH-053-R-CH3 29 (56.0 mg/kg) were tested in the light/dark and locomotor activity assays. […]

[4] = SH-053-S 20 mg/kg ip, N 6, t test p = 0.668
[5] = SH-053-S 30 mg/kg ip, N 7, t test p ≦ 0.05

With `C#Cc1ccc2c(c1)C(c1ccccc1)=NC(C)c1c(C(=O)OCC)ncn1-2` (stereo not shown) [SH-053-S—CH3, 8-Ethynyl-4-methyl-6-phenyl-4H-2,5,10b-triaza-benzo[e]azulene-3-carboxylic acid ethyl ester] the locomotor activity ([1]; 56 mg/kg) was “did not suppress locomotor activity”, the locomotor activity ([1]; 100 mg/kg) was “did not suppress locomotor activity in any significant fashion” and the locomotor activity ([1]; FIG. 2 B) was “No effects on locomotor activity were observed”. The “Open Entries” value [2, 4] was 3.00, the “Closed Entries” value ([2]; SH-053-S 20 mg/kg ip, N 6, t test p = 0.059) was 5.33 and the “Total Distance Travelled (m)” value ([2]; SH-053-S 20 mg/kg ip, N 6, t test p = 0.145) was 7.49 m. For the same compound, the “Total Entries” value ([2]; SH-053-S 20 mg/kg ip, N 6, t test p = 0.349) was 8.33, the “% Open Time” value ([2]; SH-053-S 20 mg/kg ip, N 6, t test p = 0.426) was 27.50% and the “% Open Entries” value ([2]; SH-053-S 20 mg/kg ip, N 6, t test p = 0.265) was 34.17%. For the same compound, the “Time in open arms” value [2, 4] was 61.83, the “Time in closed arms” value ([2]; SH-053-S 20 mg/kg ip, N 6, t test p ≦ 0.05) was 144.67 and the “Open Entries” value [2, 5] was 4.57. The “Closed Entries” value ([2]; SH-053-S 30 mg/kg ip, N 7, t test p = 0.481) was 6.29, the “Total Distance Travelled (m)” value ([2]; SH-053-S 30 mg/kg ip, N 7, t test p = 0.910) was 9.48 m and the “Total Entries” value ([2]; SH-053-S 30 mg/kg ip, N 7, t test p = 0.525) was 10.86. The “% Open Time” value [2, 5] was 36.00%, the “% Open Entries” value [2, 5] was 43.71% and the “Time in open arms” value [2, 5] was 93.71. The “Time in closed arms” value ([2]; SH-053-S 30 mg/kg ip, N 7, t test p = 0.116) was 164.71, the “effects on locomotor activity (summary of FIG. 1, FIG. 2, Tables 3-6)” value ([2]; at the dose tested) was “no measurable effects on locomotor activity” and the “anxiolytic activity (summary of FIG. 1, FIG. 2, Tables 3-6)” value ([2]; rat, in vivo) was “has anxiolytic activity”. For the same compound, the “time spent in the lighted chamber in the light/dark test” value [3] was “increased time spent in the lighted chamber”.
